According to patent US6204220A, “Substituted 2-oxo-3-alkynoic acids and methods of use thereof” (Rutgers, The State University of New Jersey, priority 1999, dated 2001):
Several values for one entry are separate records, joined by “and”; a condition that tells them apart may be missing. Identical values can stand only once. Entries after “also recorded” stand apart in the source; their conditions may differ. Like-named read-outs stand apart in the source and are kept apart here.

Legend:
E1 = target: T1, E1 (Escherichia coli, UniProt P0AFG8); assay: Quantification of sulfhydryl groups in E1 (DTNB titration); parameters: species or system E. coli
T1 construct: made in house; host or cells: resolved from PDHc expressed in E. coli JRG1342
T1 sequence (P0AFG8 2-887): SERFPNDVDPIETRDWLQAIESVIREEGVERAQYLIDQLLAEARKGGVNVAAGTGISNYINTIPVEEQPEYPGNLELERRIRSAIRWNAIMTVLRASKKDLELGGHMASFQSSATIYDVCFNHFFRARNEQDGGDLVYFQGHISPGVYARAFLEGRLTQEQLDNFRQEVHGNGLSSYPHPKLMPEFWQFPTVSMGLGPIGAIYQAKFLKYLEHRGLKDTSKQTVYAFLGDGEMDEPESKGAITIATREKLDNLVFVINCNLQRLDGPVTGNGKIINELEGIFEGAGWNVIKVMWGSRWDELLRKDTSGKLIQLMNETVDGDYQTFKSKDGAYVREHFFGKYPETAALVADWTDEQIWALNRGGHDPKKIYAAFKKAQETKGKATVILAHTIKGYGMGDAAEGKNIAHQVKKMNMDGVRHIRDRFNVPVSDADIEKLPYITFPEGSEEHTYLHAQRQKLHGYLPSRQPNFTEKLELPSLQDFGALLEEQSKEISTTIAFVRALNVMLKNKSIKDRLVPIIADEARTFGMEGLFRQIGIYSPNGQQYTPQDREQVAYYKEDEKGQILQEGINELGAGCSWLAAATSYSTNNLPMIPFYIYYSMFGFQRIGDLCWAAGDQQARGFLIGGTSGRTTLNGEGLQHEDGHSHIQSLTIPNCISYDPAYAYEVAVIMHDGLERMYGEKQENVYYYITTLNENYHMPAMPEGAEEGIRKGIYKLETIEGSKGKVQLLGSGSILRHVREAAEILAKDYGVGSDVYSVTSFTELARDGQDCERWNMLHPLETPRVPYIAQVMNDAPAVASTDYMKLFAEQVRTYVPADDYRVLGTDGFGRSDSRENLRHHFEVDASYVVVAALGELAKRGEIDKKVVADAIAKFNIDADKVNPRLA
Procedure: Quantification of the fraction of sulfhydryl groups in E1 modified by 2-oxo-3-butynoic acid. The concentration of titratable sulfhydryl groups was determined by treating samples (1 mL) containing E1 (3.02×10^-6 M) in 0.05 M KH2 PO4 buffer, pH 8.0 and 8 M urea, with small aliquots of 5,5'-dithiobis-(2-nitrobenzoic acid) from a 1 mM stock solution, and comparing the absorbencies at 412 nm with those obtained with freshly prepared cysteine solutions in the range 10×10^-6 -50×10^-6 M. Protein concentrations were determined by the Bio-Rad method with bovine serum albumin as standard.

E2-E3 subcomplex = target: T2, E2-E3 subcomplex (Escherichia coli, UniProt P06959+P0A9P0); assay: Preincubation of E2-E3 subcomplex with inhibitor, reconstitution with unmodified E1; format: biochemical, E. coli; details: up to 20 min preincubation, unmodified E1 added
T2 construct: made in house; host or cells: resolved from PDHc expressed in E. coli JRG1342
T2 sequence (P0A9P0 2-474): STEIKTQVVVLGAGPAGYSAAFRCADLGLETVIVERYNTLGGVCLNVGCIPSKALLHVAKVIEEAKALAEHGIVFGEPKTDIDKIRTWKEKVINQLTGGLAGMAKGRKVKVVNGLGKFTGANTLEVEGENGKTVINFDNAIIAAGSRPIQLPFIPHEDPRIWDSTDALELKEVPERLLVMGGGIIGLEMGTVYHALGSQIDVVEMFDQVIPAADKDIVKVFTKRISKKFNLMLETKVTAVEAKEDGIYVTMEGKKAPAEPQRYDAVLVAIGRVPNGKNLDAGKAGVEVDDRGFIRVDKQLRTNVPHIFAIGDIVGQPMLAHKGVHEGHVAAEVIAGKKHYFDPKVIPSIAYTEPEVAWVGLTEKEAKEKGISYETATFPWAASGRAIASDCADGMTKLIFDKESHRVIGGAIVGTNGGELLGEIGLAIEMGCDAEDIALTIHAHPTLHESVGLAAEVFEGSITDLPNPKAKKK
T2 sequence (P06959 whole entry): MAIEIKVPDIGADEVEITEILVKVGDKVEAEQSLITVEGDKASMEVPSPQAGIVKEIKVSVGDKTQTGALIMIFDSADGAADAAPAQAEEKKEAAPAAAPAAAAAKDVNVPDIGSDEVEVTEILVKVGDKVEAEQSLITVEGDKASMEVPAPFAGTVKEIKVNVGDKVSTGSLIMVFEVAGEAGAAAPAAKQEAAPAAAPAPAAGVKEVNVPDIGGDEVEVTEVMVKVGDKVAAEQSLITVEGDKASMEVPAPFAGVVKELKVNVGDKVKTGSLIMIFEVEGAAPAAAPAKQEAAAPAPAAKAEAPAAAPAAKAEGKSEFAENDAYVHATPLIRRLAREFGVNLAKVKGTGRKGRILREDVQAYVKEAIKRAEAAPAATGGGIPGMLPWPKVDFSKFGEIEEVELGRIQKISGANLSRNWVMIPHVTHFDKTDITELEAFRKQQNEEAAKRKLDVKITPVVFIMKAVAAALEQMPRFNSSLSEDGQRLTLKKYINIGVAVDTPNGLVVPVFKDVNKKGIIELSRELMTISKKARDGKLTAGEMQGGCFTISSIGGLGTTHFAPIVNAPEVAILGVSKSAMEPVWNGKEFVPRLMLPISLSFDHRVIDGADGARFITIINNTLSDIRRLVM
Procedure: (§1) Activity and related measurements on PDHc. The overall enzymatic reaction of the PDH complex was assayed using a Varian DMS 300 spectrophotometer or the Cobas Bio (Roche Diagnostics, Somerville, N.J.) automated centrifugal analyzer, monitoring the pyruvate-dependent reduction of NAD^+ at 340 nm. The reaction medium contained in 1 mL (DMS 300) or 0.25 mL (Cobas-Bio) test volume: 0.1 M Tris-HCl, pH 8.0; 1 mM MgCl2; 2 mM sodium pyruvate; 2.5 mM NAD^+; 0.052-0.2 mM coenzyme A; 0.2 mM ThDP; and 2.6 mM DTT at 27° C. The reaction was initiated either by adding enzyme to a mixture of all other components, or by adding CoA.
When the E2-E3 subcomplex was preincubated for different times (up to 20 min) with 2-oxo-3-butynoic acid, followed by dilution into a reaction mixture containing all components of the PDHc assay including unmodified E1 component, 100% of the activity could be reconstituted. In contrast, when resolved E1 was treated with inhibitors for different time periods before reconstitution with unmodified E2-E3 complex, a time-dependent decrease in the overall activity was observed (see FIG. 1B for resolved E1 reacted with 2-oxo-3-butynoic acid).

resolved E1 = target: T3, resolved E1 (Escherichia coli, UniProt P0AFG8); assay: Inactivation of resolved E1 component (activity after reconstitution with E2-E3 subcomplex); format: biochemical, E. coli; details: for remaining activity at 3700 µM: 3.7 mM inhibitor; for remaining activity at 500 µM: 15 min, read-out: residual activity of E1; for residual activity of E1: conditions as for fluorescence analysis
T3 construct: made in house; host or cells: resolved from PDHc expressed in E. coli JRG1342
T3 sequence (P0AFG8 2-887): as the sequence (P0AFG8 2-887) above
Procedure: Resolution of the E1 component from PDHc. […] PDHc was dialyzed against 50 mM Tris buffer, pH 9.0, containing 0.1 mM benzamidine.HCl, 0.15 M NaCl, 0.1 mM PMSF for 2 h, before applying to a column equilibrated and eluted with the same buffer.
as §1
One unit of activity is defined as the amount of NADH produced (μmol) per min per mg protein. The activity of resolved E1 was measured after reconstitution with excess E2-E3 subcomplex using the NADH assay for PDHc activity.
Inactivation of 1-lip and 3-lip PDH complexes and resolved E1 component by 2-oxo-3-alkynoic acids. Intact 1-lip or 3-lip PDH complexes (0.050-0.1 mg) or resolved E1 component (0.05-0.09 mg) were incubated in the dark with 5 mM MgCl2, […] of 2-oxo-3-alkynoic acids in 20 mM KH2 PO4 buffer, pH 7.5 at room temperature in a total volume 0.5 mL. The initial activity (100%) was assayed prior to the addition of 2-oxo-3-alkynoic acids. Samples (50 μL) were withdrawn periodically and diluted into 1 mL of assay solution, containing all components necessary for assay of the overall activity. The activity of untreated enzyme was stable during the time of inactivation.

[1] = Chemical stability of inhibitor on incubation in buffer before inactivation test; format: physicochemical; details: 1 mM, room temperature, 20 mM KH2PO4 pH 7.5, 1 mM ThDP, 5 mM MgCl2, up to 28 min
Procedure: Kinetics of inactivation of 1-lip and 3-lip PDH complexes and resolved E1 in the presence of 2-oxo-3-alkynoic acids. Three analogs of pyruvate were tested as potential inhibitors of the PDHc and resolved E1: 2-oxo-3-butynoic acid; 2-oxo-3-pentynoic acid; and 2-oxo-3-heptynoic acid. Incubation in the presence of saturating ThDP (1 mM) and MgCl2 (5 mM) with any of the three compounds led to the loss of overall activity in a time- and concentration-dependent fashion. The plots of remaining activity versus time were biphasic: a rapid phase of inactivation was followed either by a slow phase at high concentrations of inhibitor or a plateau at low concentrations of inhibitor, as shown for 1-lip PDHc and resolved E1 with 2-oxo-3-butynoic acid in FIGS. 1A and 1B. The biphasic kinetics may be due to chemical instability of the inhibitors, especially 2-oxo-3-butynoic acid. […] When a fresh portion of 2-oxo-3-butynoicacid was added to PDHc whose activity had plateaued at about 30%, the activity rapidly declined to a new plateau at 6-8% of the original activity. In contrast, the PDHc activity continued to decline at a low rate when fresh 1-lip PDHc was added to the sample that had already declined to 30% (data not shown).

C#CC(=O)C(=O)O [2-oxo-3-butynoic acid, 2-Oxo-3-butynoic acid]
SH-groups remaining per monomer (E1; E1 reacted to residual activity of 10%, G-25, DTNB titration, 8 M urea): 3.83±0.18 SH-groups per monomer
SH-groups modified per monomer / subunit (E1; difference to untreated E1): 1.3 SH-groups per monomer and 1.30±0.35 SH-groups per monomer
activity reconstituted after preincubation of E2-E3 subcomplex with inhibitor (E2-E3 subcomplex): 100%
residual activity of E1 used for SH titration (resolved E1): 10%
k for inactivation of E1 (resolved E1; 0.11 mM inhibitor): 1.73 min⁻¹
inhibition at 500 µM (resolved E1; 0.5 mM inhibitor, 20 min, 1 mM ThDP, 5 mM MgCl2): ~68%
remaining activity at 3700 µM (resolved E1; after G-25 chromatography, read-out: residual activity of resolved E1 in the overall reaction (At)): 11.5%
At after addition of DTT to previously inactivated E1 (resolved E1; 5 mM DTT added at At = 30%, after 60 min): 40%
protection of E1 component from modification by pyruvate (resolved E1; 5 mM pyruvate, 1 mM ThDP, 5 mM MgCl2): completely protected
reactivation of inactivated E1 by hydroxylamine (resolved E1; 0.2, 0.5 and 1 M hydroxylamine, neutral pH, 100 min or 15 h): failed to restore activity; also recorded: failure to reactivate
remaining activity at 500 µM (resolved E1; 0.5 mM inhibitor, absence of DTT): ~30%
remaining activity at 500 µM (resolved E1; 0.5 mM inhibitor, presence of 5 mM DTT): 63%
remaining activity at 3700 µM (resolved E1; E1 1.5 mg/mL, 0.1 mM ThDP, 1 mM MgCl2, read-out: E1 activity remaining before chromatography): 16%
Pyruvate:NAD+-oxidoreductase reaction (resolved E1; E1 treated with 3.7 mM inhibitor, At = 11.5%, after G-25): 0.343 ± 0.023 μmol/min/mg protein
residual activity of E1 (resolved E1; absence of added ThDP): 78-90%
residual activity of E1 (resolved E1; presence of ThDP): 40%
Ki (resolved E1; dissociation constant for initial reversible complex): 8.5 µM
kinact (resolved E1; rate constant at saturating inhibitor, resolved E1, read-out: ki E1 (converted)): 0.0298 s⁻¹
kinact/KI (resolved E1; read-out: ki/Ki E1): 3500 M⁻¹ s⁻¹
kapp, slow phase of inactivation (resolved E1; resolved E1, 0.11 mM inhibitor): 0.039 min⁻¹
kapp, slow phase of inactivation (resolved E1; resolved E1, 1.1 mM inhibitor): 0.078 min⁻¹
effect of incubating the inhibitor in buffer on its ability to inactivate 1-lip PDHc [1]: no significant effect
